These results are taken from patent US20240116985A1, “STAPLED PEPTIDES AND METHODS THEREOF” (priority 2020, published 2024).

The nature of the series: CHI Log D procedure. In kind it is physicochemical. As to conditions: for chromatographic logD: pH 7.4, CHI Log D; for CHI Log D: pH 7.4.

For orientation: chromatographic logD means lipophilicity estimated from chromatographic retention. `CC(=O)N[C@@H](Cc1ccccc1)C(=O)N[C@@H](CC(=O)O)C(=O)N[C@@H](C)C(=O)N[C@]1(C)CCCCCCC=CCOC(=O)N2CC[C@@](C(=O)N[C@@H](Cc3ccccc3)C(=O)N[C@@H](Cc3c[nH]c4ccccc34)C(=O)N[C@@H](CCC(N)=O)C(N)=O)(C2)NC(=O)[C@H](C(C)C)NC(=O)[C@H](Cc2ccccc2)NC(=O)[C@H](C)NC(=O)[C@H](C)NC(=O)[C@H](Cc2cccc3ccccc23)NC(=O)[C@H](CC(=O)O)NC1=O` [I-114, Ac-Phe-Asp-Ala-R8-Asp-1NapA-Ala-Ala-Phe-Val-PyrS-Phe-Trp-Gln-NH2] had a chromatographic logD of 2.11. For `CC(=O)N[C@@H](Cc1ccccc1)C(=O)N[C@@H](CC(=O)O)C(=O)N[C@@H](C)C(=O)N[C@]1(C)CCCCCCC=CCOC(=O)N2CC[C@@](C(=O)N[C@@H](Cc3ccccc3)C(=O)N[C@@H](Cc3c[nH]c4ccccc34)C(=O)N[C@@H](CCC(N)=O)C(N)=O)(C2)NC(=O)[C@H](C(C)C)NC(=O)[C@H](Cc2ccccc2)NC(=O)[C@H](C)NC(=O)[C@H](C)NC(=O)[C@H](Cc2ccc3ccccc3c2)NC(=O)[C@H](CC(=O)O)NC1=O` [I-115, Ac-Phe-Asp-Ala-R8-Asp-2NapA-Ala-Ala-Phe-Val-PyrS-Phe-Trp-Gln-NH2], the “CHI Log D” value is recorded as 2.145. For the compound `CC(=O)N[C@@H](Cc1ccccc1)C(=O)N[C@@H](CC(=O)O)C(=O)N[C@@H](C)C(=O)N[C@]1(C)CCCCCCC=CCOC(=O)N2CC[C@@](C(=O)N[C@@H](Cc3ccccc3)C(=O)N[C@@H](Cc3c[nH]c4ccccc34)C(=O)N[C@@H](CCC(N)=O)C(N)=O)(C2)NC(=O)[C@H](C(C)C)NC(=O)[C@H](CCc2ccccc2)NC(=O)[C@H](C)NC(=O)[C@H](C)NC(=O)[C@H](CC(=O)O)NC(=O)[C@H](CC(=O)O)NC1=O` [I-118, Ac-Phe-Asp-Ala-R8-Asp-Asp-Ala-Ala-hPhe-Val-PyrS-Phe-Trp-Gln-NH2], the “CHI Log D” value is 1.545. Same read-out and setting: the figure for `CC(=O)N[C@@H](Cc1ccccc1)C(=O)N[C@@H](CC(=O)O)C(=O)N[C@@H](C)C(=O)N[C@]1(C)CCCCCCC=CCOC(=O)N2CC[C@@](C(=O)N[C@@H](Cc3ccccc3)C(=O)N[C@@H](Cc3c[nH]c4ccccc34)C(=O)N[C@@H](CCC(N)=O)C(N)=O)(C2)NC(=O)[C@H](C(C)C)NC(=O)[C@H](CCc2ccc(O)cc2)NC(=O)[C@H](C)NC(=O)[C@H](C)NC(=O)[C@H](CC(=O)O)NC(=O)[C@H](CC(=O)O)NC1=O` [I-120, Ac-Phe-Asp-Ala-R8-Asp-Asp-Ala-Ala-hTyr-Val-PyrS-Phe-Trp-Gln-NH2] is 1.243; for `CC(=O)N[C@@H](Cc1ccccc1)C(=O)N[C@@H](CC(=O)O)C(=O)N[C@@H](C)C(=O)N[C@]1(C)CCCCCCC=CCOC(=O)N2CC[C@@](C(=O)N[C@@H](CC(=O)O)C(=O)N[C@@H](Cc3c[nH]c4ccccc34)C(=O)N[C@@H](CCC(N)=O)C(N)=O)(C2)NC(=O)[C@H](C(C)C)NC(=O)[C@H](Cc2ccccc2)NC(=O)[C@H](C)NC(=O)[C@H](C)NC(=O)[C@H](CC(=O)O)NC(=O)[C@H](CC(=O)O)NC1=O` [I-121, Ac-Phe-Asp-Ala-R8-Asp-Asp-Ala-Ala-Phe-Val-PyrS-Asp-Trp-Gln-NH2] it is 0.825.

As to `CC(=O)N1CCC[C@]12CC=CCCCC1(CCCC=CCCCCCC[C@@](C)(C(=O)N[C@@H](Cc3ccccc3)C(=O)N[C@@H](Cc3c[nH]c4ccccc34)C(N)=O)NC(=O)[C@H](C(C)C)NC(=O)[C@H](Cc3ccccc3)NC(=O)[C@H](C)NC(=O)[C@H](C)NC(=O)[C@H](CCC(=O)O)NC(=O)[C@H](CC(=O)O)NC1=O)NC(=O)[C@H](C)NC(=O)[C@H](CC(=O)O)NC2=O` (stereo partly drawn) [I-128, Ac-PL3-Asp-Ala-B5-Asp-Glu-Ala-Ala-Phe-Val-S8-Phe-Trp-NH2], the chromatographic logD is 2.22. With `CC(=O)N1CCC[C@]12CC=CCCCC1(CCCC=CCCCCCC[C@@](C)(C(=O)N[C@@H](Cc3ccccc3)C(=O)N[C@@](C)(Cc3c[nH]c4ccccc34)C(=O)N[C@@H](CCC(N)=O)C(N)=O)NC(=O)[C@H](C(C)C)NC(=O)[C@H](Cc3ccccc3)NC(=O)[C@H](C)NC(=O)[C@H](C)NC(=O)[C@H](CCC(=O)O)NC(=O)[C@H](CC(=O)O)NC1=O)NC(=O)[C@H](C)NC(=O)[C@H](CC(=O)O)NC2=O` (stereo partly drawn) [I-137, Ac-PL3-Asp-Ala-B5-Asp-Glu-Ala-Ala-Phe-Val-S8-Phe-aMeW-Gln-NH2], the “CHI Log D” value is 2.174.

`CC(=O)N1CCC[C@]12CC=CCCCC1(CCCC=CCCCCCC[C@@](C)(C(=O)N[C@@H](Cc3ccccc3)C(=O)NC(Cc3cccc4cc(F)ccc34)C(=O)N[C@@H](CCC(N)=O)C(N)=O)NC(=O)[C@H](C(C)C)NC(=O)[C@H](Cc3ccccc3)NC(=O)[C@H](C)NC(=O)[C@H](C)NC(=O)[C@H](CCC(=O)O)NC(=O)[C@H](CC(=O)O)NC1=O)NC(=O)[C@H](C)NC(=O)[C@H](CC(=O)O)NC2=O` (stereo partly drawn) [I-142, Ac-PL3-Asp-Ala-B5-Asp-Glu-Ala-Ala-Phe-Val-S8-Phe-6F1NapA-Gln-NH2]: the chromatographic logD came to 2.18. The same measure, in the same setting: the figure for `CC(=O)N1CCC[C@]12CC=CCCCC1(CCCC=CCCCCCC[C@@](C)(C(=O)N[C@@H](Cc3ccccc3)C(=O)N[C@@H](Cc3ccc(-c4ccccc4)cc3)C(=O)N[C@@H](CCC(N)=O)C(N)=O)NC(=O)[C@H](C(C)C)NC(=O)[C@H](Cc3ccccc3)NC(=O)[C@H](C)NC(=O)[C@H](C)NC(=O)[C@H](CCC(=O)O)NC(=O)[C@H](CC(=O)O)NC1=O)NC(=O)[C@H](C)NC(=O)[C@H](CC(=O)O)NC2=O` (stereo partly drawn) [I-145, Ac-PL3-Asp-Ala-B5-Asp-Glu-Ala-Ala-Phe-Val-S8-Phe-Bip-Gln-NH2] is 2.28. With `CC[C@H](C)[C@H](NC(=O)[C@H](CC(=O)O)NC(C)=O)C(=O)N[C@]1(C)CCN(C)C(=O)OCC=CCCCCC[C@@](C)(C(=O)N[C@@H](Cc2ccccc2)C(=O)N[C@@H](Cc2c[nH]c3ccccc23)C(=O)N[C@@H](Cc2c[nH]cn2)C(N)=O)NC(=O)[C@H](CCC(N)=O)NC(=O)[C@H](Cc2ccccc2)NC(=O)[C@H](C)NC(=O)[C@H](C)NC(=O)[C@H](CC(=O)O)NC(=O)[C@H](CC(=O)O)NC1=O` [I-149, Ac-Asp-Ile-RdN-Asp-Asp-Ala-Ala-Phe-Gln-S7-Phe-Trp-His-NH2], the “CHI Log D” value is 1.27.

As to `CC[C@H](C)[C@H](NC(=O)[C@H](CC(=O)O)NC(=O)[C@H](C)NC(C)=O)C(=O)N[C@]1(C)CCN(C)C(=O)OCC=CCCCCC[C@@](C)(C(=O)N[C@@H](Cc2ccccc2)C(=O)N[C@@H](Cc2c[nH]c3ccccc23)C(=O)N[C@@H](C)C(N)=O)NC(=O)[C@H](C)NC(=O)[C@H](Cc2ccccc2)NC(=O)[C@H](C)NC(=O)[C@H](C)NC(=O)[C@H](CCC(=O)O)NC(=O)[C@H](CC(=O)O)NC1=O` [I-154, Ac-Ala-Asp-Ile-RdN-Asp-Glu-Ala-Ala-Phe-Ala-S7-Phe-Trp-Ala-NH2], the “CHI Log D” value is given as 1.426. Still for that read-out and setting: the figure for `CC(=O)NC(C)(C)C(=O)N[C@@H](CC(=O)O)C(=O)N[C@@H](C)C(=O)N[C@]1(C)CCCCCCC=CCOC(=O)N2CC[C@@](C(=O)N[C@@H](Cc3ccccc3)C(=O)N[C@@H](Cc3c[nH]c4ccccc34)C(=O)N[C@@H](CCC(N)=O)C(N)=O)(C2)NC(=O)[C@H](C(C)C)NC(=O)[C@H](Cc2ccccc2)NC(=O)[C@H](C)NC(=O)[C@H](C)NC(=O)[C@H](CCC(=O)O)NC(=O)[C@H](CC(=O)O)NC1=O` [I-157, Ac-Aib-Asp-Ala-R8-Asp-Glu-Ala-Ala-Phe-Val-PyrS-Phe-Trp-Gln-NH2] is 1.202. The same measure, in the same setting: the figure for `CC(=O)NC(C)(C)C(=O)N[C@@H](CC(=O)O)C(=O)N[C@@H](C)C(=O)N[C@]1(C)CCCCCCC=CCOC(=O)N2CC[C@@](C(=O)N[C@@H](Cc3ccccc3)C(=O)N[C@@H](Cc3c[nH]c4ccccc34)C(=O)NC(C)(C)C(N)=O)(C2)NC(=O)[C@H](C(C)C)NC(=O)[C@H](Cc2ccccc2)NC(=O)[C@H](C)NC(=O)[C@H](C)NC(=O)[C@H](CCC(=O)O)NC(=O)[C@H](CC(=O)O)NC1=O` [I-159, Ac-Aib-Asp-Ala-R8-Asp-Glu-Ala-Ala-Phe-Val-PyrS-Phe-Trp-Aib-NH2] is 1.452; for `CC(=O)N[C@@H](Cc1ccccc1)C(=O)N[C@@H](CC(=O)O)C(=O)N[C@@H](C)C(=O)N[C@]1(C)CCCCCCC=CCOC(=O)N2CC[C@@](C(=O)N[C@@H](Cc3ccccc3)C(=O)N[C@@H](Cc3c[nH]c4ccccc34)C(=O)N[C@@H](CCC(N)=O)C(N)=O)(C2)NC(=O)[C@H](CO)NC(=O)[C@H](Cc2ccccc2)NC(=O)[C@H](C)NC(=O)[C@H](C)NC(=O)[C@H](CC(=O)O)NC(=O)[C@H](CC(=O)O)NC1=O` [I-163, Ac-Phe-Asp-Ala-R8-Asp-Asp-Ala-Ala-Phe-Ser-PyrS-Phe-Trp-Gln-NH2] it is 1.29. Same read-out and setting: with `CC(=O)N[C@@H](Cc1ccccc1)C(=O)N[C@@H](CC(=O)O)C(=O)N[C@@H](C)C(=O)N[C@]1(C)CCCCCCC=CCOC(=O)N2CC[C@@](C(=O)N[C@@H](Cc3ccccc3)C(=O)N[C@@H](Cc3c[nH]c4ccccc34)C(=O)N[C@@H](CCC(N)=O)C(N)=O)(C2)NC(=O)[C@H](CO)NC(=O)[C@H](Cc2ccccc2)NC(=O)[C@H](C)NC(=O)[C@H](C)NC(=O)[C@H](CC(=O)O)NC(=O)[C@H](CC(=O)O)NC1=O` [I-164, Ac-Phe-Asp-Ala-R8-Asp-Asp-Ala-Ala-Phe-Ser-PyrS-Phe-Trp-Gln-NH2] the figure was 1.359; with `CC(=O)N1CCC[C@]12CC=CCCCC1(CCCC=CCCCCCC[C@@](C)(C(=O)N[C@@H](Cc3ccccc3)C(=O)N[C@@H](Cc3c[nH]c4ccc(C5CC5)cc34)C(=O)N[C@@H](CCC(N)=O)C(N)=O)NC(=O)[C@H](C(C)C)NC(=O)[C@H](Cc3ccccc3)NC(=O)[C@H](C)NC(=O)[C@H](C)NC(=O)[C@H](CCC(=O)O)NC(=O)[C@H](CC(=O)O)NC1=O)NC(=O)[C@H](C)NC(=O)[C@H](CC(=O)O)NC2=O` (stereo partly drawn) [I-170, Ac-PL3-Asp-Ala-B5-Asp-Glu-Ala-Ala-Phe-Val-S8-Phe-5CpW-Gln-NH2], 2.138. Compound `CC(=O)N1CCC[C@]12CC=CCCCC1(CCCC=CCCCCCC[C@@](C)(C(=O)N[C@@H](Cc3c(F)c(F)c(F)c(F)c3F)C(=O)N[C@@H](Cc3c[nH]c4ccccc34)C(=O)N[C@@H](CCC(N)=O)C(N)=O)NC(=O)[C@H](C(C)C)NC(=O)[C@H](Cc3ccccc3)NC(=O)[C@H](C)NC(=O)[C@H](C)NC(=O)[C@H](CCC(=O)O)NC(=O)[C@H](CC(=O)O)NC1=O)NC(=O)[C@H](C)NC(=O)[C@H](CC(=O)O)NC2=O` (stereo partly drawn) [I-183, Ac-PL3-Asp-Ala-B5-Asp-Glu-Ala-Ala-Phe-Val-S8-Pff-Trp-Gln-NH2] gave a chromatographic logD of 2.21.
